Test system: yeast genes (expressed mRNA)
Assay: DNA chip measurement of expressed mRNA of yeast genes after culture with a toxic chemical substance
Format: cell-based, Saccharomyces cerevisiae S288C
Settings: for level of expressed mRNA in the presence of chemical substance / level in the absence of chemical substance: cultured two hours with the chemical substance; for The level of expressed mRNA in the presence of chemical substance/The level of expressed mRNA in the absence of chemical substance: cultured two hours with substance
Procedure, shortened: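 Fluorescence ratio, treated over untreated, read by chip scanner; ratio of two or more counted significant. Cells: S288C yeast, YPD, 25° C, chemical added at log phase for 2 h at growth-inhibiting, sublethal level. Cy3/Cy5-labeled cDNA from oligo-dT-purified mRNA.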

Manganese ethylenebis(dithiocarbamate) [(8)]
level of expressed mRNA in the presence of chemical substance / level in the absence of chemical substance (yeast gene YDR128W): 1.1 | level of expressed mRNA in the presence of chemical substance / level in the absence of chemical substance (yeast gene YDR133C): 0.5 | level of expressed mRNA in the presence of chemical substance / level in the absence of chemical substance (yeast gene YDR250C): 1.1 | level of expressed mRNA in the presence of chemical substance / level in the absence of chemical substance (yeast gene YDR278C): 0.5 | level of expressed mRNA in the presence of chemical substance / level in the absence of chemical substance (yeast gene YDR281C): 1.2 | The level of expressed mRNA in the presence of chemical substance/The level of expressed mRNA in the absence of chemical substance (yeast gene YDR330W): 1.1 | level of expressed mRNA in the presence of chemical substance / level in the absence of chemical substance (yeast gene YDR366C): 1.1 | The level of expressed mRNA in the presence of chemical substance/The level of expressed mRNA in the absence of chemical substance (yeast gene YDR411C): 0.9 | The level of expressed mRNA in the presence of chemical substance/The level of expressed mRNA in the absence of chemical substance (yeast gene YDR511W): 1.7 | The level of expressed mRNA in the presence of chemical substance/The level of expressed mRNA in the absence of chemical substance (yeast gene YDR545W): 0.6 | The level of expressed mRNA in the presence of chemical substance/The level of expressed mRNA in the absence of chemical substance (yeast gene YEL001C): 1.2 | The level of expressed mRNA in the presence of chemical substance/The level of expressed mRNA in the absence of chemical substance (yeast gene YER004W): 1.1 | The level of expressed mRNA in the presence of chemical substance/The level of expressed mRNA in the absence of chemical substance (yeast gene YER035W): 1.2 | The level of expressed mRNA in the presence of chemical substance/The level of expressed mRNA in the absence of chemical substance (yeast gene YER079W): 1.4 | The level of expressed mRNA in the presence of chemical substance/The level of expressed mRNA in the absence of chemical substance (yeast gene YER106W): 1.2 | The level of expressed mRNA in the presence of chemical substance/The level of expressed mRNA in the absence of chemical substance (yeast gene YER158C): 0.9 | The level of expressed mRNA in the presence of chemical substance/The level of expressed mRNA in the absence of chemical substance (yeast gene YER163C): 1.4 | The level of expressed mRNA in the presence of chemical substance/The level of expressed mRNA in the absence of chemical substance (yeast gene YER175C): 1.1 | The level of expressed mRNA in the presence of chemical substance/The level of expressed mRNA in the absence of chemical substance (yeast gene YFL006W): 1.0 | The level of expressed mRNA in the presence of chemical substance/The level of expressed mRNA in the absence of chemical substance (yeast gene YFL010C): 1.0 | The level of expressed mRNA in the presence of chemical substance/The level of expressed mRNA in the absence of chemical substance (yeast gene YFL024C): 0.9 | The level of expressed mRNA in the presence of chemical substance/The level of expressed mRNA in the absence of chemical substance (yeast gene YFL032W): 0.4 | level of expressed mRNA in the presence of chemical substance / level in the absence of chemical substance (yeast gene YFR026C): 1.3 | The level of expressed mRNA in the presence of chemical substance/The level of expressed mRNA in the absence of chemical substance (yeast gene YGL037C): 1.2 | The level of expressed mRNA in the presence of chemical substance/The level of expressed mRNA in the absence of chemical substance (yeast gene YGL047W): 1.1 | The level of expressed mRNA in the presence of chemical substance/The level of expressed mRNA in the absence of chemical substance (yeast gene YGL053W): 1.2 | level of expressed mRNA in the presence of chemical substance / level in the absence of chemical substance (yeast gene YGL088W): 0.5 | The level of expressed mRNA in the presence of chemical substance/The level of expressed mRNA in the absence of chemical substance (yeast gene YGL121C): 3.0 | The level of expressed mRNA in the presence of chemical substance/The level of expressed mRNA in the absence of chemical substance (yeast gene YGL199C): 0.7 | level of expressed mRNA in the presence of chemical substance / level in the absence of chemical substance (yeast gene YGR038W): 0.7 | The level of expressed mRNA in the presence of chemical substance/The level of expressed mRNA in the absence of chemical substance (yeast gene YGR101W): 0.8 | The level of expressed mRNA in the presence of chemical substance/The level of expressed mRNA in the absence of chemical substance (yeast gene YGR110W): 1.5 | The level of expressed mRNA in the presence of chemical substance/The level of expressed mRNA in the absence of chemical substance (yeast gene YGR130C): 0.9 | level of expressed mRNA in the presence of chemical substance / level in the absence of chemical substance (yeast gene YGR139W): 0.6 | The level of expressed mRNA in the presence of chemical substance/The level of expressed mRNA in the absence of chemical substance (yeast gene YGR154C): 1.7 | The level of expressed mRNA in the presence of chemical substance/The level of expressed mRNA in the absence of chemical substance (yeast gene YGR221C): 1.1 | level of expressed mRNA in the presence of chemical substance / level in the absence of chemical substance (yeast gene YGR243W): 1.3 | level of expressed mRNA in the presence of chemical substance / level in the absence of chemical substance (yeast gene YGR293C): 1.3 | level of expressed mRNA in the presence of chemical substance / level in the absence of chemical substance (yeast gene YHL006C): 1.1 | level of expressed mRNA in the presence of chemical substance / level in the absence of chemical substance (yeast gene YHR095W): 1.0 | level of expressed mRNA in the presence of chemical substance / level in the absence of chemical substance (yeast gene YHR105W): 1.0 | The level of expressed mRNA in the presence of chemical substance/The level of expressed mRNA in the absence of chemical substance (yeast gene YHR138C): 1.4 | level of expressed mRNA in the presence of chemical substance / level in the absence of chemical substance (yeast gene YHR181W): 0.9 | The level of expressed mRNA in the presence of chemical substance/The level of expressed mRNA in the absence of chemical substance (yeast gene YHR199C): 1.0 | The level of expressed mRNA in the presence of chemical substance/The level of expressed mRNA in the absence of chemical substance (yeast gene YIL023C): 0.7 | The level of expressed mRNA in the presence of chemical substance/The level of expressed mRNA in the absence of chemical substance (yeast gene YIL041W): 0.9 | The level of expressed mRNA in the presence of chemical substance/The level of expressed mRNA in the absence of chemical substance (yeast gene YIL087C): 1.1 | level of expressed mRNA in the presence of chemical substance / level in the absence of chemical substance (yeast gene YIL127C): 1.2 | level of expressed mRNA in the presence of chemical substance / level in the absence of chemical substance (yeast gene YJL017W): 1.0 | level of expressed mRNA in the presence of chemical substance / level in the absence of chemical substance (yeast gene YJL037W): 1.2 | The level of expressed mRNA in the presence of chemical substance/The level of expressed mRNA in the absence of chemical substance (yeast gene YJL057C): 1.5 | The level of expressed mRNA in the presence of chemical substance/The level of expressed mRNA in the absence of chemical substance (yeast gene YJL066C): 0.8 | The level of expressed mRNA in the presence of chemical substance/The level of expressed mRNA in the absence of chemical substance (yeast gene YJL082W): 0.9

Reference: patent US20100041089A1, “IMPROVED METHOD FOR DETECTING CHEMICAL […]” (priority 2006, published 2010)
